In ChEMBL document CHEMBL1201862, “PubChem BioAssay data set” (2004):
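Following 48 hours of exposure in 96-well plates, responses at five concentrations were used to interpolate endpoints linearly. GI50: concentration for 50% inhibition of growth.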 Calls of active or inactive are those of the source. Rule as the data show it: active = GI50 up to about 1.1 µM and inactive = higher.

Experiments:
Test in all cases: NCI tumour cell line growth inhibition, 48 h
A498 = system: A498
A549 = system: A549
COLO 205 = system: COLO 205
DMS-114 = system: DMS-114
HCC 2998 = system: HCC 2998
HCT-116 = system: HCT-116
HL-60 = system: HL-60
HOP-18 = system: HOP-18
HOP-62 = system: HOP-62
K562 = system: K562
NCI-H226 = system: NCI-H226
OVCAR-8 = system: OVCAR-8
RPMI-8226 = system: RPMI-8226
RXF 393 = system: RXF 393
SF-295 = system: SF-295
SK-MEL-28 = system: SK-MEL-28
UACC-257 = system: UACC-257
OVCAR-4 = system: OVCAR-4

Structure (SMILES) | GI50 (A498) | GI50 (A549) | GI50 (COLO 205) | GI50 (DMS-114) | GI50 (HCC 2998) | GI50 (HCT-116) | GI50 (HL-60) | GI50 (HOP-18) | GI50 (HOP-62) | GI50 (K562) | GI50 (NCI-H226) | GI50 (OVCAR-8) | GI50 (RPMI-8226) | GI50 (RXF 393) | GI50 (SF-295) | GI50 (SK-MEL-28) | GI50 (UACC-257) | GI50 (OVCAR-4)
CN(/N=C/c1cccc2cccnc12)c1ccc([N+](=O)[O-])cc1 | > 100 µM (inactive) | 48.1 µM (inactive) | > 100 µM (inactive) | > 100 µM (inactive) | > 100 µM (inactive) | > 100 µM (inactive) | > 100 µM (inactive) | > 100 µM (inactive) | > 100 µM (inactive) | > 100 µM (inactive) | > 100 µM (inactive) | > 100 µM (inactive) | > 100 µM (inactive) | > 100 µM (inactive) | > 100 µM (inactive) | > 100 µM (inactive) | > 100 µM (inactive) | –
CC(=O)OCCOCNC(=S)N/N=C/c1cc([N+](=O)[O-])ccc1O | > 100 µM (inactive) | > 100 µM (inactive) | 75 µM (inactive) | 30.7 µM (inactive) | 72.1 µM (inactive) | 64.3 µM (inactive) | > 100 µM (inactive) | > 100 µM (inactive) | > 100 µM (inactive) | > 100 µM (inactive) | > 100 µM (inactive) | 90.2 µM (inactive) | – | > 100 µM (inactive) | > 100 µM (inactive) | > 100 µM (inactive) | > 100 µM (inactive) | 84.5 µM (inactive)
CCOc1cccc2nc3cccc(C(=O)NCCN(C)C)c3nc12 | 0.74 µM (active) | 0.942 µM (active) | 0.632 µM (active) | 1.03 µM (active) | 0.946 µM (active) | 0.447 µM (active) | – | 3.94 µM (inactive) | 0.469 µM (active) | 0.47 µM (active) | 0.506 µM (active) | 0.891 µM (active) | 0.948 µM (active) | 1.59 µM (inactive) | 1.53 µM (inactive) | 1.93 µM (inactive) | 1.95 µM (inactive) | 1.19 µM (inactive)
COc1cc(OC)c2c(c1)C(=O)C(CC1(C)OCCCO1)=CC2=O | 18.4 µM (inactive) | 18.9 µM (inactive) | 14.3 µM (inactive) | 6.11 µM (inactive) | 17.9 µM (inactive) | 5.35 µM (inactive) | 2.17 µM (inactive) | 13 µM (inactive) | 19.1 µM (inactive) | 2.74 µM (inactive) | 19.6 µM (inactive) | 9.27 µM (inactive) | 3.78 µM (inactive) | 3.54 µM (inactive) | 14.6 µM (inactive) | 11.6 µM (inactive) | 13 µM (inactive) | 7.62 µM (inactive)
CCC12C=CCN3CC[C@]4(C(=C(C(=O)OC)[C@@H]1Nc1ncnc5c1ncn5C1OC(COC(C)=O)C(OC(C)=O)C1OC(C)=O)Nc1ccccc14)C32 (some centres not stated) | 2.04 µM (inactive) | 3.53 µM (inactive) | 1.88 µM (inactive) | 1.91 µM (inactive) | 1.82 µM (inactive) | 2.82 µM (inactive) | 2.65 µM (inactive) | 7.64 µM (inactive) | 2.84 µM (inactive) | 3.18 µM (inactive) | 2.36 µM (inactive) | 2.18 µM (inactive) | 3.27 µM (inactive) | 2 µM (inactive) | 3.05 µM (inactive) | 3.52 µM (inactive) | 5.3 µM (inactive) | 2.42 µM (inactive)
C=C1CCCC2OC(OC)CCC12 (configuration not stated) | > 100 µM (inactive) | > 100 µM (inactive) | > 100 µM (inactive) | > 100 µM (inactive) | > 100 µM (inactive) | > 100 µM (inactive) | > 100 µM (inactive) | > 100 µM (inactive) | > 100 µM (inactive) | > 100 µM (inactive) | > 100 µM (inactive) | > 100 µM (inactive) | > 100 µM (inactive) | > 100 µM (inactive) | > 100 µM (inactive) | – | > 100 µM (inactive) | > 100 µM (inactive)
CCOC(=O)C1(Br)C(c2ccccc2)NC(=O)NC1(C)Br (configuration not stated) | > 100 µM (inactive) | > 100 µM (inactive) | 65.3 µM (inactive) | 28.9 µM (inactive) | > 100 µM (inactive) | 60.4 µM (inactive) | 17.9 µM (inactive) | > 100 µM (inactive) | > 100 µM (inactive) | 39.8 µM (inactive) | > 100 µM (inactive) | 89.3 µM (inactive) | 62.2 µM (inactive) | 25.1 µM (inactive) | > 100 µM (inactive) | > 100 µM (inactive) | 82 µM (inactive) | –
CN(C)c1nc(N(C)c2ccccc2)[s+]s1 | 50.8 µM (inactive) | 53.3 µM (inactive) | – | 30.8 µM (inactive) | > 100 µM (inactive) | 41.7 µM (inactive) | 15.7 µM (inactive) | > 100 µM (inactive) | > 100 µM (inactive) | 35.1 µM (inactive) | 99.8 µM (inactive) | 66.7 µM (inactive) | – | > 100 µM (inactive) | 78.3 µM (inactive) | 64.3 µM (inactive) | 54.2 µM (inactive) | > 100 µM (inactive)
